Assays:
Echinochloa crus-galli [1] = assay: Herbicidal activity by field foliage treatment (Test example 3); assay type: in vivo; design: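 index 0 to 10 in 10% steps of herbicidal effect with 10 meaning complete death and 0 below 10%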; conditions: 1000 g effective component per hectare, day 14 after the treatment
How it was run: (§1)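 Potted field-soil plants grown 2 weeks in a greenhouse were sprayed over the whole foliage with diluted wettable powder at 1000 L/ha, delivering 1000 g active ingredient per hectare. Herbicidal effect scored by visual criteria 14 days after treatment.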

Echinochloa crus-galli [2] = assay: Herbicidal activity by field soil treatment (Test example 2); assay type: in vivo; design: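 index 0 to 10 in 10% steps of herbicidal effect with 10 meaning complete death and 0 below 10%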; conditions: 1000 g effective component per hectare, day 21 after the treatment
How it was run: (§2)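 A wettable powder formulation, diluted with water, is applied to soil over just-sown seeds at an effective rate of 1000 g/ha. Effects are judged 21 days later after greenhouse growth.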

Indian millet [3] = assay: as above; assay type: in vivo; design: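 index 0 to 10 in 10% steps of herbicidal effect with 10 meaning complete death and 0 below 10%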; conditions: 1000 g effective component per hectare, day 21 after the treatment
How it was run: as §2

A. retroflexus [4] = assay: as above; assay type: in vivo; design: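 index 0 to 10 in 10% steps of herbicidal effect with 10 meaning complete death and 0 below 10%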; conditions: 1000 g effective component per hectare, day 21 after the treatment
How it was run: as §2

Indian millet [5] = assay: Herbicidal activity by field foliage treatment (Test example 3); assay type: in vivo; design: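 index 0 to 10 in 10% steps of herbicidal effect with 10 meaning complete death and 0 below 10%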; conditions: 1000 g effective component per hectare, day 14 after the treatment
How it was run: (§3)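 Test plants, grown from seed for two weeks in a greenhouse, are treated by foliar application of a wettable-powder formulation in water at a rate of 1000 g effective component per hectare. Damage is assessed 14 days later.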

A. retroflexus [6] = assay: as above; assay type: in vivo; design: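 index 0 to 10 in 10% steps of herbicidal effect with 10 meaning complete death and 0 below 10%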; conditions: 1000 g effective component per hectare, day 14 after the treatment
How it was run: as §3

Setaria viridis = assay: as above; assay type: in vivo; conditions: 1000 g effective component per hectare, day 14 after the treatment;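 note: index 0 to 10 in 10% steps of herbicidal effect with 10 meaning complete death and 0 below 10%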
How it was run: as §1

Monochoria vaginalis = assay: Herbicidal activity by paddy field soil treatment (Test Example 1); assay type: in vivo; design: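 index 0 to 10 in 10% steps of herbicidal effect with 10 meaning complete death and 0 below 10%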; conditions: 1000 g of effective component per hectare, evaluated on day 21 after the treatment, criteria of Table 72
How it was run: (§4)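 Flooded-paddy pre-emergence assay at 1000 g a.i./ha, applied to the water surface one day after sowing; visual herbicidal score at day 21 in greenhouse.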

Scirpus juncoides Rocxb. = assay: as above; assay type: in vivo; design: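 index 0 to 10 in 10% steps of herbicidal effect with 10 meaning complete death and 0 below 10%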; conditions: applied on water surface, 1000 g of effective component per hectare, day 21 after the treatment
How it was run: as §4

Echinochloa oryzicola = assay: as above; assay type: in vivo; design: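 index 0 to 10 in 10% steps of herbicidal effect with 10 meaning complete death and 0 below 10%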; conditions: 1000 g of effective component per hectare, evaluated on day 21 after the treatment, criteria of Table 72
How it was run: as §4

foxtail = assay: Herbicidal activity by field soil treatment (Test example 2); assay type: in vivo; conditions: 1000 g effective component per hectare, day 21 after the treatment;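 note: index 0 to 10 in 10% steps of herbicidal effect with 10 meaning complete death and 0 below 10%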
How it was run: as §2

| melting point | SMILES | herbicidal effect index, Echinochloa crus-galli (Echinochloa crus-galli [1]) | herbicidal effect index, Echinochloa crus-galli (Echinochloa crus-galli [2]) | herbicidal effect index, Abutilon theophrasti (Indian millet [3]) | herbicidal effect index, Amaranthus retroflexus (A. retroflexus [4]) | herbicidal effect index, Abutilon theophrasti (Indian millet [5]) | herbicidal effect index, Amaranthus retroflexus (A. retroflexus [6]) | herbicidal effect index, Setaria viridis (Setaria viridis) | Herbicidal effects index number, Monochoria vaginalis (Monochoria vaginalis) | herbicidal effect index, S. juncoides Rocxb. (Scirpus juncoides Rocxb.) | Herbicidal effects index number, Echinochloa oryzicola (Echinochloa oryzicola) | herbicidal effect index, Setaria viridis (foxtail) |
| --- | --- | --- | --- | --- | --- | --- | --- | --- | --- | --- | --- | --- |
| 213 to 215 °C | Cn1nc(C(=O)O)c(=O)n(-c2ccccc2C#N)c1=O [V-72, 2-methyl-3,5-dioxo-4-(2-cyanophenyl)-2,3,4,5-tetrahydro-1,2,4-triazine-6-carboxylic acid] |  |  |  |  |  |  |  |  |  |  |  |
| 195 to 198 °C | Cn1nc(C(=O)O)c(=O)n(-c2ccccc2)c1=O [V-50, 2-methyl-3,5-dioxo-4-phenyl-2,3,4,5-tetrahydro-1,2,4-triazine-6-carboxylic acid] |  |  |  |  |  |  |  |  |  |  |  |
|  | Cn1nc(C(=O)C2=C(O)CCCC2=O)c(=O)n(C2C=CCCC2)c1=O (stereo not drawn) [I-303] | 8 | 9 | 9 | 10 | 9 | 10 | 10 | 10 | 10 | 10 | 9 |
|  | Cn1nc(C(=O)C2=C(O)CCCC2=O)c(=O)n(-c2cccc(Cl)c2Cl)c1=O [I-83] | 10 | 9 | 10 | 10 | 10 | 10 | 10 | 10 | 10 | 10 | 9 |

Reference: patent US8969554B2, “6-acyl-1,2,4-triazine-3,5-dione derivative and herbicides” (Kumiai Chemical Industry Co., Ltd., priority 2010, dated 2015)
